Results as given in patent US20010003121A1, “Novel compounds” (AstraZeneca UK Limited, priority 1997, published 2001).
Counter-ions that a name gives are not always drawn.

melting point [°C] | Structure (SMILES)
109 to 113 | O=C(O)CCCOc1ccccc1C(=O)NCC12CC3CC(CC(C3)C1)C2 [Example 50, 2-[[(Tricyclo[3.3.1.1^3,7]dec-1-ylmethyl)amino]carbonyl]phenyl-1-oxybutyric acid]
193 to 195 | CN(C)CCSc1ccccc1C(=O)NCC12CC3CC(CC(C3)C1)C2 [Example 39, 2-(2-(N,N-Dimethylamino)ethylthio)-N-(tricyclo[3.3.1.1^3,7]dec-1-ylmethyl)-benzamide]
165 to 167 | O=C(NCC12CC3CC(CC(C3)C1)C2)c1ccccc1C(F)(F)F [Example 11, 2-(Trifluoromethyl)-N-(tricyclo[3.3.1.1^3,7]dec-1-methyl)-benzamide]
176 to 177 | O=C(NCC12CC3CC(CC(C3)C1)C2)c1cc(F)ccc1Cl [Example 43, 2-Chloro-5-fluoro-N-(tricyclo[3.3.1.1^3,7]dec-1-ylmethyl)-benzamide]
153 to 154 | Cc1ccc(C)c(C(=O)NCC23CC4CC(CC(C4)C2)C3)c1 [Example 22, 2,5-Dimethyl-N-(tricyclo[3.3.1.1^3,7]dec-1-methyl)-benzamide]
214 | C[S+]([O-])c1ncccc1C(=O)NCC12CC3CC(CC(C3)C1)C2 (stereo not drawn) [Example 27, 2-(Methylsulphoxide)-N-(tricyclo[3.3.1.1^3,7]dec-1-methyl)-3-pyridine carboxamide]
126 to 127 | CSc1ccc(Cl)c(C(=O)NCC23CC4CC(CC(C4)C2)C3)c1 [Example 38, 2-Chloro-5-methylthio-N-(tricyclo[3.3.1.1^3,7]dec-1-ylmethyl)-benzamide]
185 to 186 | COc1cccc(OC)c1C(=O)NCC12CC3CC(CC(C3)C1)C2
147 to 149 | Nc1ccc(Cl)c(C(=O)NCCC23CC4CC(CC(C4)C2)C3)c1 [Example 74, 5-Amino-2-chloro-N-(2-[tricyclo[3.3.1.1^3,7]dec-1-yl]ethyl)-benzamide]
157 to 158 | O=C(NCC12CC3CC(CC(C3)C1)C2)c1cccnc1N1CCCC1 (as salt: hydrochloride) [Example 36, 2-(Pyrrolidin-1-yl) N-(tricyclo[3.3.1.1^3,7]dec-1-ylmethyl)-3-pyridine carboxamide, dihydrochloride]
182 to 183 | Nc1cccc(Cl)c1C(=O)NCC12CC3CC(CC(C3)C1)C2 [Example 14, 2-Amino-6-chloro-N-(tricyclo[3.3.1.1^3,7]dec-1-methyl)-benzamide]
185 to 186 | O=C(O)COc1ccc(Sc2ncccc2C(=O)NCC23CC4CC(CC(C4)C2)C3)cc1 [Example 47, 3-[[(Tricyclo[3.3.1.1^3,7]dec-1-ylmethyl)amino]carbonyl]pyridyl-2-(4-phenylthio) oxyacetic acid]
266 to 268 | O=C(NCC12CC3CC(CC(C3)C1)C2)c1cccnc1NCCN1CCCC1 (as salt: hydrochloride) [Example 33, 2-(2-(Pyrrolidin-1-yl)ethylamino)-N-(tricyclo[3.3.1.1^3,7]dec-1-ylmethyl)-3-pyridine carboxamide, dihydrochloride]
160 to 161 | CSc1nc(C)ccc1C(=O)NCC12CC3CC(CC(C3)C1)C2 [Example 49, (2-Methylthio-6-methyl)-N-(tricyclo[3.3.1.1^3,7]dec-1-ylmethyl)-3-pyridine carboxamide]
108 to 110 | O=C(NCC12CC3CC(CC(C3)C1)C2)c1cccnc1Sc1cc(O)ccc1O [Example 44, 2-(2,5-Dihydroxyphenylthio)-N-(tricyclo[3.3.1.1^3,7]dec-1-ylmethyl)-3-pyridine carboxamide]
63 to 64 | O=C(NCC12CC3CC(CC(C3)C1)C2)c1cc(NCCNCC(O)c2ccccc2)ccc1Cl (stereo not drawn) [Example 69, 5-(N-(2-Hydroxy-2-phenylethyl)-2-aminoethyl)amino-2-chloro-N-(tricyclo[3.3.1.1^3,7]dec-1-ylmethyl)-benzamide]
101 to 103 | CC(C)(C)OC(=O)COc1ccccc1C(=O)NCC12CC3CC(CC(C3)C1)C2 [Example 25, 2-[[(Tricyclo[3.3.1.1^3,7]dec-1-ylmethyl)amino]carbony]phenyl-1-oxyacetic acid, 1,1-dimethylethyl ester]
180 to 182 | O=C(NCC12CC3CC(CC(C3)C1)C2)c1ccc(Cl)cc1Cl
160 to 162 | CNc1ncccc1C(=O)NCC12CC3CC(CC(C3)C1)C2 (as salt: hydrochloride) [Example 34, 2-(Methylamino)-N-(tricyclo[3.3.1.1^3,7]dec-1-ylmethyl)-3-pyridine carboxamide, dihydrochloride]
215 | CN(C)CCNc1ccc(Cl)c(C(=O)NCC23CC4CC(CC(C4)C2)C3)c1 [Example 57, 2-Chloro-5-(N,N-dimethylamino)ethylamino-N-(tricyclo[3.3.1.1^3,7]dec-1-ylmethyl)-benzamide]
204 to 205 | CN(C)c1ncccc1C(=O)NCC12CC3CC(CC(C3)C1)C2 (as salt: hydrochloride) [Example 35, 2-(Dimethylamino)-N-(tricyclo[3.3.1.1^3,7]dec-1-ylmethyl)-3-pyridine carboxamide, hydrochloride]
